This passage reports inhibition results from patent US7511047B2, “Kinase inhibitors” (Cytopia Research Pty Ltd, priority 2002, dated 2009).

Where only a bound is given, the exact number is not on record here.

Holding throughout (assay type): biochemical
The target in assay [1] is hck (Homo sapiens, UniProt P08631). Nature of the assay: hck kinase assay (ELISA or Alphascreen). Particulars: capacity to inhibit 50% of activity at 50 μM; read-out: hck inhibitory activity. How it is done: (§1) For screening purposes, compounds were diluted in 96 well plates at a concentration of 20 μM. Plates were warmed at 37° C. for 30 minutes before assay.
Sequence of hck (P08631 262-515 limits assumed, species assumed): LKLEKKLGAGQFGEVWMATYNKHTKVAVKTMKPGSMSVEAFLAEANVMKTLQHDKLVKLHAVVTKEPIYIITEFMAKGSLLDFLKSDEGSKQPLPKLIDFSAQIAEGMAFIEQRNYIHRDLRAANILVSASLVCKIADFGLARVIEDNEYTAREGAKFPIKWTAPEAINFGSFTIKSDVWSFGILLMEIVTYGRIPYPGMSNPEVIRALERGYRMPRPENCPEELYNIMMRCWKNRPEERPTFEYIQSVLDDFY
(§2) Kinase assays were performed either in a 96 well capture-based ELISA assay or in 384 well Optiplates (Packard) using an Alphascreen Protein Tyrosine Kinase kit. In either casse using approximately 1.5 μg of affinity purified PTK domain in the presence of 50 mM HEPES, pH 7.5, 10 mM MgCl2, 150 mM NaCl and 10 μM-1 mM ATP. The biotinylated substrate biotin-EGPWLEEEEEAYGWMDF-NH2 (SEQ ID NO:9) (final concentration 5 μM) was used as substrate. In the ELISA assay tyrosine phosphorylation was quantitated following transfer to an avidin coated ELISA plate using peroxidase-linked anti-phospho-tyrosine antibody PY20. In the Alphascreen assay, Alphascreen phosphotyrosine acceptor beads followed by streptavidin donor beads were added under subdued light. The ELISA plates were read on a BMG Fluorostar, the Alphascreen plates were read on a Packard Fusion Alpha. Inhibitors were added to the assays fifteen minutes prior to the addition of ATP. Inhibitors were added in aqueous DMSO, with DMSO concentrations never exceeding 1%.
A general note: In an ELISA, binding on a coated surface is turned into a signal by an enzyme label.

The target in assay [2] is T1, abl (Homo sapiens, UniProt P00519).
T1 sequence (P00519 242-493 limits assumed): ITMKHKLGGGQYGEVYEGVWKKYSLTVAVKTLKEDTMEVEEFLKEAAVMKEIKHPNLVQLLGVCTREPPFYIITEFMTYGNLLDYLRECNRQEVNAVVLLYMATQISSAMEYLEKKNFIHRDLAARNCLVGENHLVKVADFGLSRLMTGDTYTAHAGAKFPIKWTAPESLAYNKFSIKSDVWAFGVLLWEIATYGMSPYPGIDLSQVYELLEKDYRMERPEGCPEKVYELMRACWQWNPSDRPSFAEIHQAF
Nature of the assay: abl kinase assay (ELISA or Alphascreen). Particulars: capacity to inhibit 50% of activity at 50 μM; read-out: abl inhibitory activity. How it is done:
as §1, §2

The target in assay [3] is kdr (Homo sapiens, UniProt P35968). In words: kdr kinase assay (ELISA or Alphascreen). To be noted: capacity to inhibit 50% of activity at 50 μM; read-out: kdr inhibitory activity. Here is the method:
as §1, §2

Assay [4] deals with T2, Jak2 (Homo sapiens, UniProt O60674).
T2 construct: The kinase domain of humanJAK2 was amplified from U937mRNA; His tag (from pFastBac HTc vector) (N); made in house; host or cells: baculovirus; Sf9 insect cells for virus, High Five cells for large-scale production
T2 sequence (O60674 849-1124 limits assumed): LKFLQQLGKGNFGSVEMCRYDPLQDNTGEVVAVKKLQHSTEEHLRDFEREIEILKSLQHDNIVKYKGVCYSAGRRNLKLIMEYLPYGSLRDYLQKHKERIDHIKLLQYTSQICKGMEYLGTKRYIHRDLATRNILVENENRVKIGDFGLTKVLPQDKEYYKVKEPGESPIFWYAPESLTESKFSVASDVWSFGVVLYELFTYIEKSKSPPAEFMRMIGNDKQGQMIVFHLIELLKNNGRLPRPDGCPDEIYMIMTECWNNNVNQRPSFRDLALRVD
In words: JAK2 kinase domain assay (ELISA or Alphascreen). Particulars: capacity to inhibit 50% of activity at 50 μM; read-out: Jak2 inhibitory activity. How it is done: as §1
• JAK1 PCR products were cloned into the pFastBac HTb expression vector (Gibco) via the Xho I and Kpn I sites. The JAK1 plasmid was then transformed into competent DH10Bac cells (Gibco), and the recombinant baculovirus produced prepared for transfection into Sf9 insect cells. JAK2 • The kinase domain of humanJAK2 was amplified from U937mRNA using the polymerase chain reaction with the following primers:
• JAK2 PCR products were cloned into the pFastBac HTc expression vector (Gibco) via the Sal I and Not I sites. The JAK2 plasmid was then transformed into competent DH10Bac cells (Gibco), and the recombinant baculovirus produced prepared for transfection into Sf9 insect cells. JAK3 • The kinase domain of humanJAK3 was amplified from U937mRNA using the polymerase chain reaction with the following primers: […]
(§3) Baculovirus preparations from each of the JAK family members were infected into five litres of High Five cells (Invitrogen) grown in High Five serum free medium (Invitrogen) to a cell density of approximately 1-2×10^6 cells/ml. Cells are infected with virus at a MOI of 0.8-3.0. Cells were harvested and lysed. JAK kinase domains were purified by affinity chromatography on a Probond (Invitrogen) nickel chelate affinity column.
as §2

Assay [5] has as its target T3, Jak3 (Homo sapiens, UniProt P52333).
T3 construct: The kinase domain of humanJAK3 was amplified from U937mRNA; His tag (from pFastBac HTb vector) (N); made in house; host or cells: baculovirus; Sf9 insect cells for virus, High Five cells for large-scale production
In words: JAK3 kinase domain assay (ELISA or Alphascreen). Particulars: capacity to inhibit 50% of activity at 50 μM; read-out: Jak3 inhibitory activity. How it is done:
as §1
• JAK2 PCR products were cloned into the pFastBac HTc expression vector (Gibco) via the Sal I and Not I sites. The JAK2 plasmid was then transformed into competent DH10Bac cells (Gibco), and the recombinant baculovirus produced prepared for transfection into Sf9 insect cells. JAK3 • The kinase domain of humanJAK3 was amplified from U937mRNA using the polymerase chain reaction with the following primers:
• JAK3 PCR products were cloned into the pFastBac HTb expression vector (Gibco) via the Xho I and Kpn I sites. The JAK3 plasmid was then transformed into competent DH10Bac cells (Gibco), and the recombinant baculovirus produced prepared for transfection into Sf9 insect cells. TYK2 • The kinase domain of humanTYK2 was amplified from A549 mRNA using the polymerase chain reaction with the following primers: […]
as §3, §2

T3 sequence (P52333 822-1111 limits assumed): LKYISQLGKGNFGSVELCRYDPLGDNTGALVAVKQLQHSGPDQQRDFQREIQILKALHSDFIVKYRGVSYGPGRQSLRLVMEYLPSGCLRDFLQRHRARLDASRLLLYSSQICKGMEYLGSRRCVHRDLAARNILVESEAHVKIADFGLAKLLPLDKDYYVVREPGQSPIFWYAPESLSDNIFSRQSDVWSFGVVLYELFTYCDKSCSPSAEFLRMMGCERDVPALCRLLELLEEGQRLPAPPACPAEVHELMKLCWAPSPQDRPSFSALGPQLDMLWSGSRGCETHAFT
Sequence of kdr (P35968 834-1162 limits assumed, species assumed): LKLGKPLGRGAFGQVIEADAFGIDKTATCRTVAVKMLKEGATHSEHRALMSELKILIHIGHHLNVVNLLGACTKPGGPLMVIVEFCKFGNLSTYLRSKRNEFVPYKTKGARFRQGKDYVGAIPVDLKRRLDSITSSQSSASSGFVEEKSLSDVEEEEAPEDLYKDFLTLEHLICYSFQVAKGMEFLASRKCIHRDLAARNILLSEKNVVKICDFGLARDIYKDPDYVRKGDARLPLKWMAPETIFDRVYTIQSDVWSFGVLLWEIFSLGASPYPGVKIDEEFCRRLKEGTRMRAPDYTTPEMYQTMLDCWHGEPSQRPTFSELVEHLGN

`Fc1ccc(CNc2cncc(-n3cnc4ccccc43)n2)cc1`: the inhibition at 50 µM is more than 50% in assay [1]; more than 50% in assay [2]; less than 50% in assay [3]; more than 50% in assay [4]; less than 50% in assay [5].
Consider `C[C@@H](Nc1cncc(-n2cnc3ncccc32)n1)c1ccccc1`, for which the inhibition at 50 µM in assay [1], in assay [2], in assay [3], in assay [4] and in assay [5] was less than 50% in each case.
In the case of `C[C@H](Nc1cncc(-n2cnc3cc(CN4CCN(C)CC4)ccc32)n1)c1ccccc1`, the inhibition at 50 µM in assay [1] was more than 50%; in assay [2], less than 50%; in assay [3], more than 50%; in assay [4] it was less than 50%; in assay [5] it was less than 50%.
In the case of `C[C@H](Nc1cncc(-n2cnc3cc(CO)ccc32)n1)c1ccccc1`, the inhibition at 50 µM in assay [1] was more than 50%; in assay [2], less than 50%; in assay [3], more than 50%; in assay [4], more than 50%; in assay [5], less than 50%.
As for `C[C@H](Nc1cncc(-n2cnc3ccc(CO)cc32)n1)c1ccccc1`, the inhibition at 50 µM in assay [1] is more than 50%; in assay [2] it was less than 50%; in assay [3], more than 50%; in assay [4], more than 50%; in assay [5] it was more than 50%.
For `C[C@H](Nc1cncc(-n2cnc3cc(C(=O)NCCN(C)C)ccc32)n1)c1ccccc1`, the inhibition at 50 µM in assay [1] was more than 50%; in assay [2] it was more than 50%; in assay [3], more than 50%; in assay [4], more than 50%; in assay [5], less than 50%.
Regarding `C[C@H](Nc1cncc(-n2cnc3cc(NC(=O)[C@@H]4CCCN4C(=O)OC(C)(C)C)ccc32)n1)c1ccccc1`, the inhibition at 50 µM was more than 50% in assay [1]; more than 50% in assay [2]; more than 50% in assay [3]; more than 50% in assay [4]; less than 50% in assay [5].
Consider `C[C@H](Nc1cncc(-n2cnc3cnccc32)n1)c1ccccc1`, for which the inhibition at 50 µM in assay [1], in assay [2], in assay [3], in assay [4] and in assay [5] was more than 50% in each case.
With `C[C@H](Nc1cncc(-n2cnc3cc(NC(=O)C4CCCN4)ccc32)n1)c1ccccc1` (stereo partly shown), the inhibition at 50 µM was more than 50% in assay [1]; less than 50% in assay [2]; more than 50% in assay [3]; more than 50% in assay [4]; more than 50% in assay [5].
As to `C[C@H](Nc1cncc(-n2cnc3cc(-c4cccnc4)ccc32)n1)c1ccccc1`, the inhibition at 50 µM in assay [1], in assay [2], in assay [3], in assay [4] and in assay [5] was more than 50% throughout.
For `C[C@H](Nc1cncc(-n2cnc3cc(C(=O)NCCCn4ccnc4)ccc32)n1)c1ccccc1`, the inhibition at 50 µM in assay [1] is more than 50%; in assay [2], more than 50%; in assay [3], more than 50%; in assay [4], more than 50%; in assay [5], less than 50%.
With `C[C@H](Nc1cncc(-n2cnc3cc(C(=O)NCCCN4CCOCC4)ccc32)n1)c1ccccc1`, the inhibition at 50 µM in assay [1], in assay [2], in assay [3], in assay [4] and in assay [5] was more than 50% throughout.
As for `CC(Nc1cncc(-n2cnc3ccccc32)n1)c1cccnc1` (stereo not shown), the inhibition at 50 µM in assay [1], in assay [2], in assay [3], in assay [4] and in assay [5] was more than 50% in each case.
`CC(Nc1cncc(-n2cnc3ccccc32)n1)c1ccc(F)cc1` (stereo not shown): the inhibition at 50 µM in assay [1] was more than 50%; in assay [2], more than 50%; in assay [3], more than 50%; in assay [4], more than 50%; in assay [5] it was less than 50%.
Take `C[C@H](Nc1cncc(-n2cnc3ccccc32)n1)c1ccc(-c2cccnc2)cc1`: the inhibition at 50 µM in assay [1] is less than 50%; in assay [2], less than 50%; in assay [3], more than 50%; in assay [4] it was more than 50%; in assay [5], more than 50%.
Regarding `C[C@H](Nc1cncc(-n2cnc3cc(-c4ccncc4)ccc32)n1)c1ccccc1`, the inhibition at 50 µM in assay [1] was more than 50%; in assay [2], more than 50%; in assay [3], more than 50%; in assay [4], more than 50%; in assay [5], less than 50%.
In the case of `C[C@H](Nc1cncc(-n2cnc3cc(Br)ccc32)n1)c1ccccc1`, the inhibition at 50 µM in assay [1], in assay [2], in assay [3], in assay [4] and in assay [5] was more than 50% each time.
In the case of `C[C@H](Nc1cncc(-n2cnc3ccc(C(=O)NCCCN4CCOCC4)cc32)n1)c1ccccc1`, the inhibition at 50 µM in assay [1] is more than 50%; in assay [2], more than 50%; in assay [3], more than 50%; in assay [4], more than 50%; in assay [5], less than 50%.
As for `C[C@H](Nc1cncc(-n2cnc3cc(NC(=O)C4CCCNC4)ccc32)n1)c1ccccc1` (stereo partly shown), the inhibition at 50 µM in assay [1], in assay [2], in assay [3], in assay [4] and in assay [5] was more than 50% throughout.
In the case of `C[C@H](Nc1cncc(-n2cnc3cc(NS(=O)(=O)c4ccccc4)ccc32)n1)c1ccccc1`, the inhibition at 50 µM was less than 50% in assay [1]; less than 50% in assay [2]; more than 50% in assay [3]; more than 50% in assay [4]; more than 50% in assay [5].
Consider `C[C@H](Nc1cncc(-n2cnc3cc(C(=O)NCCCCN4CCOCC4)ccc32)n1)c1ccccc1`, for which the inhibition at 50 µM in assay [1], in assay [2], in assay [3], in assay [4] and in assay [5] was more than 50% each time.
Turning to `CC(Nc1cncc(-n2cnc3ccc(CN4CCN(C)CC4)cc32)n1)c1ccc(F)cc1` (stereo not shown), the inhibition at 50 µM was more than 50% in assay [1]; less than 50% in assay [2]; more than 50% in assay [3]; less than 50% in assay [4]; less than 50% in assay [5].
On to `C[C@H](Nc1cncc(-n2cnc3ccc(C(=O)NCCCCN4CCOCC4)cc32)n1)c1ccccc1`, for which the inhibition at 50 µM in assay [1], in assay [2], in assay [3], in assay [4] and in assay [5] was more than 50% each time.
